Data as given in US9220706B2, “Inhibition of leukemic stem cells by PP2A activating agents” (Ohio State Innovation Foundation, priority 2012, dated 2015).
Counter-ions that a name gives are not always drawn.

How the values were obtained:
[1] = tested on: β-catenin-driven (LEF/TCF) transcriptional activity; assay: LEF/TCF reporter assay; type: cell-based, human; details: CD34^+/CD38^− CML and 32D-BCR/ABL cells
Procedure: LEF/TCF reporter assay. CD34+/CD38− CML cells were transduced with pBAR or pfuBAR (negative control) ®-catenin lentiviral reporter constructs (54), puromycin-selected and treated with the indicated drugs. Luciferase was measured using the Bright-Glo Luciferase system (Promega).

[2] = tested on: CFSE^max/CD34^+ CML cells; assay: CFSE-mediated tracking of quiescent cells, CML; type: cell-based, human
Procedure: (§1) CFSE-mediated tracking of cell division. Carboxyfluorescein diacetate succinimidyl diester (CFSE)-stained cells (CellTrace CFSE Proliferation Kit: Invitrogen) were cultured in the presence of the indicated drugs (dosed at time zero and at day three), and the cells were harvested after 3 or 6 days in culture, and stained with anti-CD34 PE, Annexin-V V450, and the viability stain 7-AAD (BD Bioscience) to determine the number of viable quiescent cells (CFSEmax/CD34^+/7-AAD− cells) and the percentage of quiescent and apoptosis-committed cells (CFSEmax/CD34+/Annexin V+/7-AAD±). Cells were sorted into dividing and quiescent populations for Western blot analysis. For assessment of mouse quiescent leukemic HSCs, Lin- cells from 8 week-induced SCLtTA/BCR-ABL1 mice were CFSE-stained and used as described above. Quiescent cells (CFSE^max/CD34^+) were reported as a fraction of the initial number of CD34^+ cells.

CML cells = assay: Long term culture-initiating cell (LTC-IC) assay; type: cell-based, human; details: drug during first week of 6-week culture, vs untreated
Procedure: (§2) Long term culture-initiating cell (LTC-IC) and Colony-forming cell (CFC)/replating assays. 2×10^6 mononuclear CML cells were cultured with a 1:1 mixture of irradiated (80 Gy) IL-3/G-CSF-producing M2-10B4 and IL-3/KL-producing SI/SI murine fibroblasts in MyeloCult H5100 (StemCell Technologies) supplemented with hydrocortisone. Drugs were present during the first week of culture. Medium was replaced after 7 days, followed by weekly half-medium changes. After 6 weeks, adherent and floating cells were harvested and 5×10^4 cells plated into MethoCult H4435. LTC-IC-derived colonies were scored after 14 days. For CFC/replating, individual 14-day colonies from 10^3-10^5 CD34+/CD38− CML or 0.2×10^3-10^3 leukemic LSK cells plated in 0.9% H4435 or M3234 MethoCult, respectively, containing KL, G-CSF, GM-CSF, IL-3, IL-6, and Epo were replated and scored 2 weeks later.

CD34+/CD38− CML cells = assay: CFC/replating assay, CML cells; type: cell-based, human
Procedure: as §2

[3] = tested on: normal CD34^+ progenitors; assay: Toxicity to normal progenitors; type: cell-based, human; details: at concentrations that impair Ph^+ HSC survival
[4] = tested on: CML cells (CFSE^max/CD34^+, CD34^+/CD38^−, CD34^+); assay: Annexin-V/7-AAD apoptosis staining; type: cell-based, human; details: for effect on FTY720-induced apoptosis of quiescent cells: CD34^+ CML cells, GSK-3β inhibitor with FTY720
Procedure: as §1

β-catenin = β-catenin immunofluorescence; type: cell-based, human; details: CD34^+/CD38^− CML, leukemic LSK, and 32D-BCR/ABL cells
Source text: Immunofluorescence and proximity ligation assay. CD34^+/CD38^− cells from CML patient samples or LSK cells derived from induced leukemic mice were sorted, treated in liquid culture with the indicated drugs and cytospun onto glass slides. Slides were fixed in 3.7% formaldehyde, penneabilized with 0.05% Triton X-100, and stained with an Anti-®-catenin primary antibody (Cell signaling), a secondary goat F(ab′) anti-rabbit conjugated to Alexa Fluor 647, and the nuclear stain DAPI (Invitrogen); slides were mounted with Slowfade antifade reagent (Invitrogen). Microphotographs were obtained with a Zeiss LSM 510 confocal laser-scanning microscope with C-Apochromat 63/1.2 W objective. A minimum of three fields for each slide were acquired. For the Proximity Ligation Assay (PLA) CD34+/CD38− CML cells were treated, fixed, and permeabilized as described above. The slides were then simultaneously stained with a mix of mouse anti-PP2A (Millipore) and rabbit anti-SET (Globozyme) antibodies. The PLA procedure (Duolink; Olink Bioscience) was performed according to manufacturer instructions. An average of 20 z-stack ([…]) were captured with a Zeiss LSM 510 confocal laser-scanning microscope with C-Apochromat 63/1.2 W objective; at least three fields/slide were acquired. Three-dimensional projections were generated and positive signals/cell were calculated by ImageJ software (NIH).

B lymphocytes = assay: B-lymphopenia induction; details: in vivo
PP2A [5] = biological target: T1, PP2A (Homo sapiens, UniProt P67775); assay: PP2A phosphatase assay; type: cell-based
T1 construct: PP2Ac assays from whole cell lysates; endogenous in cells; host or cells: CD34+/CD38- and CD34+/CD38+ primary CML and normal bone-marrow cells; immunoprecipitated with Millipore PP2Ac antibody
Procedure: PP2A phosphatase assay. PP2Ac assays from whole cell lysates were carried out using the PP2Ac immunoprecipitation phosphatase assay kit (Millipore). Briefly, protein lysates (50 μg) in 100 μl of 20 mM Hepes. pH 7.0, 100 mM NaCl, 5 μg of PP2Ac antibody (Millipore), and 25 μl of Protein A-agarose were added to 400 μl of 50 mM Tris, pH 7.0, 100 mM CaCl2, and IPs were carried out at 4° C. for 2 h. IPs were used in the phosphatase reaction according to the manufacturer's protocol.

S1PR1 = S1PR1 (Homo sapiens, UniProt P21453); assay: S1PR1 internalization; type: cell-based
PP2A [6] = biological target: T1, PP2A; details: Roberts et al., Cancer Res 2010; cited from earlier work

T1 sequence (P67775 whole entry): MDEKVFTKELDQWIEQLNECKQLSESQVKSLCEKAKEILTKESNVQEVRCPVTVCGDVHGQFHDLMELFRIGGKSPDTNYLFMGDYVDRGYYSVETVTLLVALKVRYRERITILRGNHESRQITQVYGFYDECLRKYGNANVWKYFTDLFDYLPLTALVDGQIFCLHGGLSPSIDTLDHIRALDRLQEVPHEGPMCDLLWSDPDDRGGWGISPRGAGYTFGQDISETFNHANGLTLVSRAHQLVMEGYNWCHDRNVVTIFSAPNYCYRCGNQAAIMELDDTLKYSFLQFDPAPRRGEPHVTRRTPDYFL
S1PR1, sequence (P21453 whole entry, species assumed): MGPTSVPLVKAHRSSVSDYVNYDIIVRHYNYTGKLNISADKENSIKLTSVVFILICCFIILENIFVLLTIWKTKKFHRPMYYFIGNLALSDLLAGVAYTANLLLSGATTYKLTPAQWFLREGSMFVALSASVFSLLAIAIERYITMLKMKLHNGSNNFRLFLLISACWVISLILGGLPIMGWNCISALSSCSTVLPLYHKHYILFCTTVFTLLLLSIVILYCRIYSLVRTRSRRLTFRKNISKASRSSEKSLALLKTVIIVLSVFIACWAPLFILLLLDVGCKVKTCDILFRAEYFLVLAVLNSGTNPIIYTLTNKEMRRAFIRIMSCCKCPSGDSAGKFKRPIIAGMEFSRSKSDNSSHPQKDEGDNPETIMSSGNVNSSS

Structure (SMILES): C=C[C@@]1(C)CC(=O)[C@@H]2[C@@]3(C)CCCC(C)(C)[C@@H]3[C@H](O)[C@H](OC(C)=O)[C@@]2(C)O1 [1,9-dideoxy-forskolin]
- β-catenin transcriptional activity (LEF/TCF luciferase) [1]: markedly impaired

Structure (SMILES): Cc1cnc(Nc2ccc(OCCN3CCCC3)cc2)nc1Nc1cccc(S(=O)(=O)NC(C)(C)C)c1 [TG101348]
- decrease in CFSE^max (quiescent) CML HSCs ([2]; CFSE-labeled CD34^+ CML cells, FTY720 at 2.5 μM): 50%
- inhibition of LTC-ICs (CML cells): ~80%
- reduction in replating efficiency (CD34+/CD38− CML cells): ~75%
- β-catenin transcriptional activity (LEF/TCF luciferase) [1]: markedly impaired
- toxicity to normal CD34^+ progenitors [3]: toxicity of TG101348 to normal CD34^+ progenitors

Structure (SMILES): C=C1[C@@H](O)[C@@H]2O[C@]3(CC[C@H](/C=C/[C@@H](C)[C@@H]4CC(C)=C[C@@]5(O[C@H](C[C@@](C)(O)C(=O)O)CC[C@H]5O)O4)O3)CC[C@H]2O[C@@H]1[C@@H](O)C[C@H](C)[C@H]1O[C@@]2(CCCCO2)CC[C@H]1C [okadaic acid]
- effect on FTY720-induced decrease of CFSE^max HSCs ([2]; 0.25 nM okadaic acid with FTY720): antagonized

Structure (SMILES): Cn1cc(C2=C(c3ccc(Cl)cc3Cl)C(=O)NC2=O)c2ccccc21 [SB216763]
- effect on FTY720-induced apoptosis of quiescent cells [4]: abrogated FTY720-induced apoptosis

Structure (SMILES): Cc1ccc(NC(=O)c2ccc(CN3CCN(C)CC3)cc2)cc1Nc1nccc(-c2cccnc2)n1 [imatinib, imatinib mesylate]
- β-catenin degradation (β-catenin): but not imatinib (n=3) induced β-catenin degradation

Structure (SMILES): [Cl-].[Li+] [LiCl, lithium chloride]
- effect on FTY720-induced apoptosis of quiescent cells [4]: abrogated FTY720-induced apoptosis

Structure (SMILES): CCCC(N)(CO)CCc1ccc(OCCCCCC(C)C)cc1 (stereo not shown) [OSU-2S]
- effect on CML CFSE^max cells ([2]; CML n=9): significantly reduced
- B-lymphopenia (B lymphocytes): without triggering S1PR1 internalization or inducing B-lymphopenia
- PP2A activation (PP2A [5]): activated PP2A
- S1PR1 internalization (S1PR1): without triggering S1PR1 internalization

Structure (SMILES): CCCCCCCCc1ccc(CCC(N)(CO)COP(=O)(O)O)cc1 (stereo not shown) [FTY-P]
- apoptosis of quiescent/HSC-enriched CML cells ([4]; CFSE^max/CD34^+ or CD34^+/CD38^− CML cells): failed to induce apoptosis
- PP2A activity induction (PP2A [6]): did not induce PP2A activity
